PMC10218941, “Design, Synthesis, Antiproliferative Actions, and DFT Studies of New Bis–Pyrazoline Derivatives as Dual EGFR/BRAF^V600E Inhibitors” (International Journal of Molecular Sciences, 2023)

Legend:
BRAF^V600E = BRAF^V600E inhibitory assay
Description: V600E mutant BRAF kinase assay was performed to investigate the activity of tested compounds against BRAF. Mouse full-length GST-tagged BRAFV600E (7.5 ng, Invitrogen, PV3849) was pre-incubated with drug (1 µL) and assay dilution buffer (4 µL) for 60 min at 25 °C. In assay dilution buffer, a solution (5 µL) containing MgCl2 (30 mM), ATP (200 µM), recombinant human full length (200 ng) and N-terminal His-tagged MEK1 (Invitrogen) was added to start the assay, subsequent to incubation for 25 min at 25 °C. The assay was stopped using 5X protein denaturing buffer (LDS) solution (5 µL). To further denature the protein, heat (70° C) was applied for 5 min.
10 µL of each reaction was loaded into the precast plates and electrophoresis was allowed to proceed. After completion of electrophoresis, the front part of the precast gel plate (holding hot ATP) was cut and afterwards cast-off. The dried gel was developed using a phosphor screen.
served as positive control.

[1] = system: four human cancer cell lines (A-549, MCF-7, Panc-1, HT-29); assay: Antiproliferative assay, mean of four cancer cell lines (GI50); type: cell-based; conditions: mean over A-549, MCF-7, Panc-1, HT-29
[2] = system: MCF-7 (breast cancer cell line); assay: Antiproliferative assay (MTT), MCF-7; type: cell-based; conditions: Homo sapiens, MCF7; read-out: Antiproliferative Activity IC50 ± SEM (µM) MCF-7
Description: (§1) The antiproliferative activity of pyrazoline hybrids 8–17 was tested against the four human cancer cell lines Panc-1 (pancreatic cancer cell line), MCF-7 (breast cancer cell line), HT-29 (colon cancer cell line), and A-549 (lung cancer cell line) using the MTT assay and doxorubicin as the reference drug. See Appendix SA (Supplementary File).
(§2) 4.2. Biological evaluation
(§3) 4.2.1. Cytotoxic activity using MTT Assay and evaluation of IC50 […]
(§4) 96-well flat-bottomed cell culture plates were used to seed the cells at a […]
(§5) of 10^4 cells mL-1. The medium was aspirated from all the wells of culture plates after 24 h followed by the addition of synthesized compounds (in 200 μL medium to yield a final concentration of 0.1% (v/v) dimethyl sulfoxide) into individual wells of the plates. Four wells were designated to a single compound. The plates were allowed to incubate at 37°C for 96 h. Afterwards, the medium was aspirated and 3 -[4,5-dimethylthiazol-2-yl]-2,5-diphenyltetrazolium bromide (MTT) (0.4 mg/mL) in medium was added to each well and subsequent ly incubated for 3 h. The medium was aspirated and 150 μL dimethyl sulfoxide (DMSO) was added to each well. The plates were vortexed followed by the measurement of absorbance at 540 nm on a microplate reader. The results were presented as inhibition (%) of proliferation in contrast to controls comprising 0.1% 4.2.1.2. Assay for antiproliferative effect
(§6) To explore the antiproliferative potential of compounds propidium iodide fluorescence assay was performed using different cell lines such as Panc -1 (pancreas cancer cell line), MCF-7 (breast cancer cell line), HT-29 (colon cancer cell line) and A-549 (epithelial cancer cell line), respectively. To calculate the total nuclear DNA, a fluorescent dye (propidium iodide, PI) is used which can attach to the DNA, thus offering a quick and precise technique. PI cannot pass through the cell membrane and its signal intensity can be considered as directly proportional to quantity of cellular DNA. Cells whose cell membranes are damaged or have changed permeability are counted as dead ones. The assay was performed by seeding the cells of different cell lines at a density of 3000-7500 cells/well (in200μl medium) in culture plates followed by incubation for 24h at 37 °C in humidified 5%CO2/95% air atmospheric conditions. The medium was removed; the compounds were added to the plates at 10 μM concentrations (in 0.1% DMSO) in triplicates, followed by incubation for 48h. DMSO (0.1%) was used as control. After incubation, medium was removed followed by the addition of PI (25 μl, 50μg/mL in water/medium) to each well of the plates. At - 80 °C, the plates were allowed to freeze for 24 h, followed by thawing at 25 °C. A fluorometer (Polar-Star BMG Tech) was used to record the readings at excitation and emission wavelengths of 530 and 620 nm for each well. The percentage cytotoxicity of compounds was calculated using […]
(§7) Where ATC= Absorbance of treated cells and AC= Absorbance of control. Erlotinib was used as positive control in the assay. […]

[3] = system: Panc-1 (pancreatic cancer cell line); assay: Antiproliferative assay (MTT), Panc-1; type: cell-based; conditions: Homo sapiens, read-out: Antiproliferative Activity IC50 ± SEM (µM) Panc-1
Description: as §1, with “File). […]” for “File).”
(§8) 4.2.1.2. Assay for antiproliferative effect
as §6, §7

[4] = system: HT-29 (colon cancer cell line); assay: Antiproliferative assay (MTT), HT-29; type: cell-based; conditions: Homo sapiens, read-out: Antiproliferative Activity IC50 ± SEM (µM) HT-29
Description: as §1, with “File). […]” for “File).”
as §8, §6, §7

EGFR = target: T1, EGFR (Homo sapiens, UniProt P00533); assay: EGFR inhibitory assay; type: biochemical; conditions: read-out: EGFR Inhibition IC50 ± SEM
T1 construct: 645–1186); His6 (N); made in house; host or cells: Sf-9 insect cells (baculovirus; pBlueBacHis2B / pFASTBacHTc
T1 sequence (P00533 669-1210): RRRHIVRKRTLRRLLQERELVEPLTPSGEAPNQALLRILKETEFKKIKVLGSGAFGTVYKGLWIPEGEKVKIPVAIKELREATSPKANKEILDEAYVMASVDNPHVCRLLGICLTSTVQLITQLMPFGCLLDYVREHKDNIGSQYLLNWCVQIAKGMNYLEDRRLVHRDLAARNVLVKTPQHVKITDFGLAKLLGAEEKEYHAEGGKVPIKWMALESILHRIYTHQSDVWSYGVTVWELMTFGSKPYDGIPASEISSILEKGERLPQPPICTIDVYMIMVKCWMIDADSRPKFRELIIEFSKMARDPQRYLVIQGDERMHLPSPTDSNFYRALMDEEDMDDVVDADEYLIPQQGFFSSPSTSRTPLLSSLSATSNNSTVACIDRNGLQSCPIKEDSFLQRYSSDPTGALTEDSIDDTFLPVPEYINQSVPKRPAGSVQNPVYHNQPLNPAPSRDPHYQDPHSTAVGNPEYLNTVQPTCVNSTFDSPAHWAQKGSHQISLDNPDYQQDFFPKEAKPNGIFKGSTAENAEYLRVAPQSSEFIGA
Description: 4.2.2. EGFR inhibitory assay
Baculoviral expression vectors including pBlueBacHis2B and pFASTBacHTc were used […]
(1 picture or pasted object on this page, not shown here)
5ʹ upstream to the EGFR sequence comprised a sequence that encoded (His)6. Sf-9 cells were infected for 72h for protein expression. The pellets of Sf-9 cells were solubilized in a buffer containing sodium vanadate (100 μM), aprotinin (10 μg/mL), triton (1%), HEPES […]
centrifugation for 20 min.
Histidine-linked proteins were first eluted with 250 and then […]
enhancement solution was added to each well and the signal was recorded at excitation and […]
The autophosphorylation percentage inhibition by compounds was calculated using the following equation: […]

[5] = system: A-549 (lung cancer cell line); assay: Antiproliferative assay (MTT), A-549; type: cell-based; conditions: Homo sapiens, A549; read-out: Antiproliferative Activity IC50 ± SEM (µM) A-549
Description: as §1, §2, §3, §4, §5, §6, §7

Sequence of BRAF^V600E (P28028 whole entry V585E): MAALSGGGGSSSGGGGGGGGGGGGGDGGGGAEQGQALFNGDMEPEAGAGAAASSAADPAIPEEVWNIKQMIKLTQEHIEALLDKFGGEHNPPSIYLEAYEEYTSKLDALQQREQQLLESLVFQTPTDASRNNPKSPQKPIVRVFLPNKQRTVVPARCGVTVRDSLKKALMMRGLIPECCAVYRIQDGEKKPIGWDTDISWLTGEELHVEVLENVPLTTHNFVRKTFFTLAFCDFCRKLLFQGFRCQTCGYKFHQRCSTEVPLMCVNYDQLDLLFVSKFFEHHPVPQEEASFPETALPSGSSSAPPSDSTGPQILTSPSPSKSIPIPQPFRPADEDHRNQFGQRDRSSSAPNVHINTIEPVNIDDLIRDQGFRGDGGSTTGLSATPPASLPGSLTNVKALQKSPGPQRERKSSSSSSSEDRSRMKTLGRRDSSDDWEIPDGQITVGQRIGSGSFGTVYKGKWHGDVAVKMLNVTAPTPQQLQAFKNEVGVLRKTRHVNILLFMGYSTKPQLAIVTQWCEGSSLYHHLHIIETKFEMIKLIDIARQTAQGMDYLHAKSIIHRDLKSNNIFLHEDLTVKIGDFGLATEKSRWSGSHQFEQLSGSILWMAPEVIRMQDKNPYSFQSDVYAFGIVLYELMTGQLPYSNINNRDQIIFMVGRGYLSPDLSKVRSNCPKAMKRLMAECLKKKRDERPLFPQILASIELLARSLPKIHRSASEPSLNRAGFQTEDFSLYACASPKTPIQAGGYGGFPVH

Row | IC50 (BRAF^V600E) | IC50 [1] | IC50 [2] | IC50 [3] | IC50 [4] | IC50 (EGFR) | IC50 [5] | SMILES
1 | 93 ± 6 nM | 1050 nM | 0.9 ± 0.1 µM | 1.1 ± 0.1 µM | 1.2 ± 0.1 µM | 81 ± 5 nM | 1 ± 0.1 µM | COc1ccc(C2CC(c3ccc(OCC(=O)Nc4ccc(C5=NNC(c6ccc(OC)c(OC)c6)C5)cc4)cc3)=NN2)cc1 (centres unmarked) [Compound 12, 2-(4-(5-(4-Methoxyphenyl)-4,5-dihydro-1H-pyrazol-3-yl)phenoxy)-N-(4-(5-(3,4-dimethoxyphenyl)-4,5-dihydro-1H-pyrazol-3-yl)phenyl)acetamide]
2 | 107 ± 9 nM | 1200 nM | 1 ± 0.1 µM | 1.3 ± 0.1 µM | 1.3 ± 0.1 µM | 87 ± 6 nM | 1.2 ± 0.1 µM | COc1ccc(C2CC(c3ccc(NC(=O)COc4ccc(C5=NNC(c6ccc(OC)c(OC)c6)C5)cc4)cc3)=NN2)cc1 (centres unmarked) [Compound 17, 2-(4-(5-(3,4-Dimethoxyphenyl)-4,5-dihydro-1H-pyrazol-3-yl)phenoxy)-N-(4-(5-(4-methoxyphenyl)-4,5-dihydro-1H-pyrazol-3-yl)phenyl)acetamide]
